Assay results from patent EP1614683B1, “Indazole compounds and pharmaceutical compositions for inhibiting protein kinases, and methods for their use” (priority 1999, dated 2001).
Where two headings read alike, the source gives them in different places. Each block holds one compound with its values, some of them ahead of it.

Tests used:
human CHK1 (FL-CHK1) = biological target: T1, human CHK1 (FL-CHK1) (Homo sapiens, UniProt O14757); experiment: CHK1 coupled spectrophotometric assay; type: biochemical; conditions: Table 1; read-out: CHK -1* (Ki)
T1 construct: C-terminally His-tagged full-length human CHK1 (FL-CHK1) was expressed using the baculovirus/insect cell system; made in house; host or cells: baculovirus/insect cell system
T1 sequence (O14757 1-476): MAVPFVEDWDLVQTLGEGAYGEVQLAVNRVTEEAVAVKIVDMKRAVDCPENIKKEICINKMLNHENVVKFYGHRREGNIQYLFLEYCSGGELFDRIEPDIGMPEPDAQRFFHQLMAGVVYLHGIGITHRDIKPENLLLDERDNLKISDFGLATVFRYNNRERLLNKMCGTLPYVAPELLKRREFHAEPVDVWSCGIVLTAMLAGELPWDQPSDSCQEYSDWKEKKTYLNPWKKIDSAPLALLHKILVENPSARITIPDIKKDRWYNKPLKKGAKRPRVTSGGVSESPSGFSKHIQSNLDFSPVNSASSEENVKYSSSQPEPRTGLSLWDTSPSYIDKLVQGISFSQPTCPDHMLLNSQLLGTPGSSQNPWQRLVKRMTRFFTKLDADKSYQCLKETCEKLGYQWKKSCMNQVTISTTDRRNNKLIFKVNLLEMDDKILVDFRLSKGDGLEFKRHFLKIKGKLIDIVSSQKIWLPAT
Description: CHK1 Construct for Assay: C-terminally His-tagged full-length human CHK1 (FL-CHK1) was expressed using the baculovirus/insect cell system. […] The protein was purified by conventional chromatographic techniques.
The production of ADP from ATP that accompanies phosphoryl transfer to the synthetic substrate peptide Syntide-2 ([…]) was coupled to oxidation of NADH using phosphoenolpyruvate (PEP) through the actions of pyruvate kinase (PK) and lactic dehydrogenase (LDH). The oxidation of NADH was monitored by following the decrease of absorbance at 340 nm (∈340 = 6.22 cm^-1 mM^-1) using a HP8452 spectrophotometer. […] Assays were initiated with 10 nM of FL-CHK1. Ki values were determined by measuring initial enzyme activity in the presence of varying concentrations of test compounds. The data were analyzed using Enzyme Kinetic and Kaleidagraph software.

[1] = biological target: T2, phosphorylated Tie-2 (aa 775-1122) (Homo sapiens, UniProt Q02763); experiment: TIE-2 spectrophotometric assay; type: biochemical; conditions: for inhibition at 1 µM: read-out: % Inhibition @ 1 µM Tie2-P; for inhibition at 10 µM: read-out: % Inhibition Tie2-P, compound tested at 10 µM
T2 construct: 4 to 12 nM phosphorylated Tie-2 (aa 775-1122); made in house; host or cells: insect cells
T2 sequence (Q02763 775-1122): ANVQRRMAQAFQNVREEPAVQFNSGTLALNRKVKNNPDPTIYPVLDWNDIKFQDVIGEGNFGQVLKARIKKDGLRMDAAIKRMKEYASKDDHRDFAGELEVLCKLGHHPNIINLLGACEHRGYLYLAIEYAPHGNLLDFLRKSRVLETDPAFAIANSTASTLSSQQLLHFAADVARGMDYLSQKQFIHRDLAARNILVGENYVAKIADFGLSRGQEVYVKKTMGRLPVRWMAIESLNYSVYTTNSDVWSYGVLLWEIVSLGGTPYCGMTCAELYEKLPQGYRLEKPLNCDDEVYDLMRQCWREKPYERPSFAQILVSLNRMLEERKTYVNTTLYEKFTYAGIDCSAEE
Procedure: This construct also carries a R774M mutation, which serves as the initiating methionine residue in translation.
The kinase-catalyzed production of ADP from ATP that accompanies phosphoryl transfer to the random copolymer poly(Glu4 Tyr) was coupled to the oxidation of NADH through the activities of pyruvate kinase (PK) and lactate dehydrogenase (LDH). NADH conversion to NAD* was monitored by the decrease in absorbance at 340 nm (ε = 6.22 cm^-1mM^-1) using a Beckman DU650 spectrophotometer. Typical reaction solutions contained 1 mM phosphoenolpyruvate, 0.24 mM NADH, 40 mM MgCl2, 5 mM DTT, 2.9 mg/mL poly(Glu4Tyr), 0.5 mM ATP, 15 units/mL PK, 15 units/mL LDH in 100 mM HEPES, pH 7.5. […]

human FGF-R1 = human FGF-R1 (Homo sapiens, UniProt P11362, C488A/C584S/L457V); experiment: FGF-R spectrophotometric assay; type: biochemical
Chain of human FGF-R1 (P11362 456-766 L457V/C488A/C584S): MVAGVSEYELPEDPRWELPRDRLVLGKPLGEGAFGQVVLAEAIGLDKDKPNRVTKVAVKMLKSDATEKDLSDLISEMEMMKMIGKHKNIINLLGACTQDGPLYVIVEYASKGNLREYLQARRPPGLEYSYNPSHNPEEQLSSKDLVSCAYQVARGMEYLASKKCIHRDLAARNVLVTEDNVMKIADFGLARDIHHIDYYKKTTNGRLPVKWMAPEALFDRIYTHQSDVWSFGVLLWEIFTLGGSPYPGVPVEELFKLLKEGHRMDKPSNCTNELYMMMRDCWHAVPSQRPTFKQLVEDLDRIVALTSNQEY
Procedure: The spectrophotometric assay was carried out as described above for VEGF-R2, except for the following changes in concentration: FGF-R = 50 nM, ATP = 2 mM, and poly(E4Y1) =15 mM.

LCK tyrosine kinase = LCK tyrosine kinase (Homo sapiens, UniProt P06239, C224D/P223M); experiment: LCK spectrophotometric assay; type: biochemical
Chain of LCK tyrosine kinase (P06239 223-509 P223M/C224D): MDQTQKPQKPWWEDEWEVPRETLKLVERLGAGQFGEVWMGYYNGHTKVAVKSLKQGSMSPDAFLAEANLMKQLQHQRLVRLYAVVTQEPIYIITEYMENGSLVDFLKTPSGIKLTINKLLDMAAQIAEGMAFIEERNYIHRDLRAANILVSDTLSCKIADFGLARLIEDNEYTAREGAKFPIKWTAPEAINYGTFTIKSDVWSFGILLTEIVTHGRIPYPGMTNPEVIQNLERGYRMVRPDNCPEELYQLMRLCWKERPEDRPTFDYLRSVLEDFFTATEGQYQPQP
Procedure: The spectrophotometric assay was carried out as described above for VEGF-R2, except for the following changes in concentration: LCK = 60 nM, MgCl2 = 0 mM, poly(E4Y1) = 20 mM.

[2] = tested on: human umbilical vein endothelial cells (HUVEC); experiment: HUVEC proliferation assay (VEGF-stimulated, MTT); type: cell-based; conditions: Homo sapiens, HUVEC, Table 1
[3] = tested on: VEGF dependent retinal neovascularization; experiment: Neonatal rat model of retinopathy of prematurity; type: in vivo; conditions: Model ROP
Procedure: A second model of VEGF dependent retinal neovascularization was employed to evaluate the activities of this series of compounds. […] The animals are exposed for 24 hours to a concentration of 50% oxygen followed by 24 hours at a concentration of 10% oxygen. This alternating cycle of hyperoxia followed by hypoxia is repeated 7 times after which the animals are removed to room air (P14). Compounds are administered via intravitreal injection upon removal to room air and the animals are sacrificed 6 days later (P20). The isolated retinas are then isolated, stained mounted and analyzed as detail above in the development model. The effectiveness was also graded as is described for the development model.

[4] = mouse, in vivo
in vitro = in vitro ADME, human; conditions: human, microsomes, 2 h, 5 µM
Summary of the method: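 HLM diluted to 5 mg/mL in 100 mM KPO4, preincubated 10 min at 37 °C with NADPH-regenerating system. Compound (5 µM final) incubated at 37 °C in triplicate, sampled at 0 and 2 h into ice-cold acetonitrile, then LC-MS analysis.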

[5] = Table 5, 1 µM, bold values spectrophotometric assay, non-bolded DELFIA assay (bold not visible here)
[6] = Table 1, compound concentration 1 µM, read-out: FGF-P* (% inhibition)
[7] = Table 1, compound concentration 1 µM, read-out: Lck-P* (% inhibition)
[8] = + albumin, read-out: HUVEC + albumin IC50
[9] = intravitreal, 1 mg/ml, vehicle PEG/water 70:30
[10] = intravitreal, 10 mg/ml, vehicle PEG/water 70:30

Structure (SMILES): Brc1cccc(Oc2ccc3c(/C=C/c4ccccc4)n[nH]c3c2)c1 [8(d), 6-(3-Bromo-phenoxy)-3-styryl-1H-indaxole]
- Ki (human CHK1 (FL-CHK1)): 82 nM
- inhibition at 1 µM [1]: 10%

Structure (SMILES): Oc1ccc(Oc2ccc3c(/C=C/c4ccccc4)n[nH]c3c2)cc1 [9(b), 3-(E-styryl)-6-[4-hydroxyphenoxy]-1H-indazole]
- inhibition at 10 µM [1]: 88%

- inhibition at 1 µM [1, 5]: 17%
Structure (SMILES): CN(c1cccc(NC(=O)OCc2ccccc2)c1)c1ccc2c(/C=C/c3ccccc3)n[nH]c2c1 [12(c), {3-[Methyl-(3-styryl-1H-indazol-6-yl)-amino]-phenyl}-carbamic acid benzyl ester]

Structure (SMILES): Cc1cccc(C(=O)Nc2cccc(N(C)c3ccc4c(/C=C/c5ccc6c(c5)OCO6)n[nH]c4c3)c2)c1 [16(b), N-(3-{[3-(2-Benzo[1,3]dioxol-5-yl-vinyl)-1H-indazol-6-yl]-methyl-amino}-phenyl)-3-methyl-benzamide]
- inhibition at 1 µM (human FGF-R1; [6]): 73%
- inhibition at 1 µM (LCK tyrosine kinase; [7]): 22%
- inhibition at 1 µM [1, 5]: 52%
- IC50 [2, 8]: 140 nM
- IC50 ([2]; read-out: HUVEC IC50): 4.7 nM

Structure (SMILES): CC(=O)Nc1cccc(C(=O)c2ccc3c(/C=C/c4ccccc4)n[nH]c3c2)c1 [19(a), N-[3-(3-Styryl-1H-indazole-6-carbonyl)-phenyl]-acetamide]
- inhibition at 1 µM (human FGF-R1; [6]): 92%
- inhibition at 1 µM (LCK tyrosine kinase; [7]): 16%
- inhibition at 1 µM [1, 5]: 18%
- IC50 ([2]; read-out: HUVEC IC50): 44 nM

Structure (SMILES): Cc1cnc(C(=O)Nc2cccc(C(=O)c3ccc4c(/C=C/c5ccccc5)n[nH]c4c3)c2)s1 [19(d), 5-Methyl-thiazole-2-carboxylic acid [3-(3-styryl-1H-indazole-6-carbonyl)-phenyl]-amide]
- inhibition at 1 µM (human FGF-R1; [6]): 39%
- inhibition at 1 µM (LCK tyrosine kinase; [7]): 33%
- inhibition at 1 µM [1, 5]: 15%
- IC50 [2, 8]: 34 nM
- IC50 ([2]; read-out: HUVEC IC50): 6.8 nM

Structure (SMILES): C=C(c1cccc(NC(=O)c2ncc(C)s2)c1)c1ccc2c(/C=C/c3ccccc3)n[nH]c2c1 [22(a), 6-(1-(3-(5-Methyl-thiaxole-2-carboxoylamido)phenyl)-vinyl)-3-styryl-1H-indazole]
- inhibition at 1 µM [1, 5]: 8%
- IC50 ([2]; read-out: HUVEC IC50): 12 nM

Structure (SMILES): COc1cc(-c2ccc3c(-c4nc5ccccc5[nH]4)n[nH]c3c2)c(C)cc1O [24(a), 4-[3-(1-H-Benzoimidazol-2-yl)-1-H-indazol-6-yl]-2-methoxy-5-methyl-phenol]
- inhibition at 1 µM (human FGF-R1; read-out: FGF* (% inhibition)): 72%
- inhibition at 1 µM (LCK tyrosine kinase; read-out: Lck* (% inhibition)): 67%
- inhibition at 10 µM [1]: 91%

Structure (SMILES): Cc1cc(O)ccc1-c1ccc2c(-c3nc4ccccc4[nH]3)n[nH]c2c1 [24(b), 4-[3-(1-H-Benzoimidazol-2-yl)-1-H-indazol-6-yl]-3-methylphenol]
- inhibition at 1 µM (human FGF-R1; read-out: FGF* (% inhibition)): 88%
- inhibition at 1 µM (LCK tyrosine kinase; read-out: Lck* (% inhibition)): 96%
- inhibition at 10 µM [1]: 92%

Structure (SMILES): Cc1cc(O)c(Cl)cc1-c1ccc2c(-c3nc4ccccc4[nH]3)n[nH]c2c1 [24(c), 4-[3-(1-H-Benzoimidazol-2-yl)-1-B-indazol-6-yl]-2-chloro-5-methyl-phenol]
- inhibition at 1 µM (human FGF-R1; read-out: FGF* (% inhibition)): 89%
- inhibition at 1 µM (LCK tyrosine kinase; read-out: Lck* (% inhibition)): 93%
- inhibition at 1 µM [1]: 94%

Structure (SMILES): O=C(c1cccc(NC(=O)c2cccc3[nH]ccc23)c1)c1ccc2c(/C=C/c3ccccn3)n[nH]c2c1 [41 (d)]
- % Inhibition [3, 9]: 0%
- AUCleast ([4]; ip, 25 mg/kg, pH 2.3): 10324 ng·h/mL
- T1/2 ([4]; ip, 25 mg/kg, pH 2.3): 2.8 h
- AUCleast ([4]; po, 50 mg/kg, pH 2.3): 7072 ng·h/mL
- T1/2 ([4]; po, 50 mg/kg, pH 2.3): 1.5 h

Structure (SMILES): C=C(c1ccccc1)c1ccc2c(/C=C/c3ccccc3)n[nH]c2c1 [Example 10, 6-(1-Phenyl-vinyl)-3-styryl-1H-indazole]
- inhibition at 10 µM [1]: 20%
- IC50 ([2]; read-out: HUVEC IC50): > 700 nM

- inhibition at 1 µM [1, 5]: 40%
Structure (SMILES): CN(c1cccc(N)c1)c1ccc2c(/C=C/c3ccccc3)n[nH]c2c1 [Example 11, N-Methyl-N-(3-styryl-1H-indazol-6-yl)-benzene-1,3-diamine]

Structure (SMILES): O=C(c1ccccc1)c1ccc2c(/C=C/c3ccccc3)n[nH]c2c1 [Example 17, Phenyl-(3-styryl-1H-indazol-6-yl)-methanone]
- inhibition at 1 µM [1]: 50%

Structure (SMILES): C=C(c1cccc(N)c1)c1ccc2c(/C=C/c3ccccc3)n[nH]c2c1 [Example 21, 6-(1-(3-Aminophenyl)-vinyl)-3-styryl-1H-indazole]
- inhibition at 1 µM [1, 5]: 27%
- IC50 ([2]; read-out: HUVEC IC50): > 700 nM

Structure (SMILES): O=C(Nc1cccc(C(=O)c2ccc3c(/C=N/n4cccc4)n[nH]c3c2)c1)c1ccccc1 [Example 45(b), 6-(3-Benzamidobenzoyl)-3-E-[N-(pyrrol-1-yl)iminomethyl]-1H-indazole]
- % remain (HLM, 2 h) (in vitro): 97%
- % Inhibition [3, 9]: 25%
- % Inhibition [3, 10]: 60%
- Initial Evaluation [3, 10]: ++ (two pluses being judged to be approximately 25-75 % regression)

Structure (SMILES): CCn1nc(C)cc1C(=O)Nc1cccc(C(=O)c2ccc3c(/C=C/c4ccccn4)n[nH]c3c2)c1.Cl [Example 59(a), 6-[3-((1-Ethyl-3-methyl-1H-pyrazol-5-yl)carboxamido)benzoyl]-3-E-[2-(pyridin-2-yl)ethenyl]-1H-indazole hydrochloride]
- % Inhibition ([3]; 1 mg/ml, vehicle 0.5%CMC): 19%
- % Inhibition ([3]; 10 mg/ml, vehicle C.5%CMC): 41%
- T1/2 ([4]; po, 25 mg/kg): 1.6 h

Structure (SMILES): Cc1ccc2cc(NC(=O)c3ccccc3Sc3ccc4c(/C=C/c5ccccc5)n[nH]c4c3)ccc2n1 [Reference Example 38(a), 6-[2-(2-Methylquinol-6-ylcarbamoyl)phenylsulfanyl]-3-E-(2-styryl)-1H-indazole]
- inhibition at 1 µM (human FGF-R1; [6]): 74%
- inhibition at 1 µM (LCK tyrosine kinase; [7]): 77%
- Initial Evaluation [3, 9]: + (one plus being detectable regression judged to be approximately 25 percent or less)
- Initial Evaluation [3, 10]: +++ (three pluses give to retinas with near total regression (approximately 75% or greater))

Structure (SMILES): O=C(c1cccc(NC(=O)c2cccc3[nH]ccc23)c1)c1ccc2c(/C=C/c3ccccn3)n[nH]c2c1 [Reference Example 41(d), 6-[3-(indol-4-ylcarboxamido)benzoyl]-3-E-[2-(pyridin-2-yl)ethenyl]-1H-indazole]
- IC50 [2, 8]: 6.4 nM
- IC50 ([2]; read-out: HUVEC IC50): 0.9 nM
- % Inhibition [3, 10]: 59%
- Initial Evaluation [3, 10]: +++ (three pluses give to retinas with near total regression (approximately 75% or greater))
